The record followed here is ChEMBL document CHEMBL1158165, “Correlation between reduction potentials and inhibitions of Epstein-Barr virus activation by anthraquinone derivatives” (Bioorg Med Chem Lett, 2008).

The structures appear in SMILES notation.

Assay type in all cases: cell-based
In data set [1] the test system is Raji. As to the kind of experiment: Inhibition of 12-O-tetradecanoylphorbol-13-acetate induced EBV-early antigen activation in human Raji cells. To be noted: human gammaherpesvirus 4.
In data set [2] the test system is Raji. As to the kind of experiment: Inhibition of 12-O-tetradecanoylphorbol-13-acetate induced EBV-early antigen activation in human Raji cells at 1000 molar ratio relative to control. The arrangement: scale not given: the % may be the effect or the level left. To be noted: human gammaherpesvirus 4.
The subject of data set [3] is Raji. As to the kind of experiment: Inhibition of 12-O-tetradecanoylphorbol-13-acetate induced EBV-early antigen activation in human Raji cells at 10 molar ratio relative to control. The note with it: human gammaherpesvirus 4. On the set-up: scale not given: the % may be the effect or the level left.
Data set [4] concerns Raji. The data set is described as follows: Inhibition of 12-O-tetradecanoylphorbol-13-acetate induced EBV-early antigen activation in human Raji cells at 100 molar ratio relative to control. The arrangement: scale not given: the % may be the effect or the level left. To be noted: human gammaherpesvirus 4.
Data set [5] is described as follows: Cytotoxicity against human Raji cells assessed as cell viability at 1000 molar ratio. The note with it: read-out: Activity.
The subject of data set [6] is Raji. As to the kind of experiment: Inhibition of 12-O-tetradecanoylphorbol-13-acetate induced EBV-early antigen activation in human Raji cells at 500 molar ratio relative to control. The arrangement: scale not given: the % may be the effect or the level left. The note with it: human gammaherpesvirus 4.

As for `O=C1c2cccc(O)c2C(=O)c2c1cc(CO)c(-c1c(CO)cc3c(c1O)C(=O)c1c(O)cccc1C3=O)c2O`, the logIC50 with Raji [1] stood at 2.78.

Compound `COc1c(O)cc2c(c1O)C(=O)c1c(cc(C)c(O)c1OC)C2=O` displayed a logIC50 with Raji [1] of 2.72.

Compound `COc1cc2c(c(O)c1OC)C(=O)c1c(cc(C)c(O)c1OC)C2=O` returned a logIC50 with Raji [1] of 2.73.

Consider `COc1cc2c(c(OC)c1O)C(=O)c1c(ccc(C)c1O)C2=O`, for which, in the data set on Raji [1], the logIC50 stood at 2.55.

In turn, `O=C1c2ccccc2C(=O)c2ccccc21` came in with a logIC50 in the data set with Raji [1] of 3.04.

Take `COc1cc(OC)c2c(c1)C(=O)c1cc(C)cc(OC)c1C2=O`: the Activity amounted to 0% with Raji [2], 90.1% in the data set on Raji [3], 44% in the data set with Raji [4] and 21.1% in the data set with Raji [6]. In addition, the logIC50 in the data set on Raji [1] amounted to 2.41. In data set [5], the viability at 1000 molar ratio was found to be 60%.

As for `Cc1cc2c(c(O)c1-c1c(C)cc3c(c1O)C(=O)c1c(O)cc(O)cc1C3=O)C(=O)c1c(O)cccc1C2=O`, the logIC50 with Raji [1] is 2.8.

In the data set on Raji [1], `O=C1c2cccc(O)c2C(=O)c2c(O)cc(CO)cc21` came in with a logIC50 of 2.66.

Regarding `Cc1cc2c(c(O)c1-c1c(C)cc3c(c1O)C(=O)c1c(O)cc(O)cc1C3=O)C(=O)c1c(O)cc(O)cc1C2=O`, the logIC50 with Raji [1] came to 2.7.

For the compound `COc1cc(OC)c2c(c1)C(=O)c1cc(C)cc(O)c1C2=O`, the Activity came to 2.9% in the data set on Raji [2], 94.7% with Raji [3], 51.7% with Raji [4] and 24.2% in the data set with Raji [6]. Besides, the logIC50 in the data set on Raji [1] came to 2.5. Further, the viability at 1000 molar ratio in data set [5] turned out to be 60%.

With `Cc1cc(O)c2c(c1)C(=O)c1cc(O)c(-c3c(C)cc4c(c3O)C(=O)c3c(O)cccc3C4=O)c(O)c1C2=O`, in the data set with Raji [1], the logIC50 came out at 2.83.

Take `CC(=O)Oc1cc(O)cc2c1C(=O)c1c(O)cc(C)cc1C2=O`: in the data set with Raji [1], the logIC50 stood at 2.69.

As for `COc1cc2c(c(O)c1C)C(=O)c1c(O)cc(C)cc1C2=O`, the Activity in the data set on Raji [2] was found to be 1.2%; in the data set with Raji [3], 93%; in the data set on Raji [4], 50%; in the data set on Raji [6], 23.2%. In the data set with Raji [1], this compound showed a logIC50 of 2.48. Moreover, in data set [5], the viability at 1000 molar ratio was determined as 60%.

The compound `Cc1cc2c(c(O)c1-c1c(C)cc3c(c1O)C(=O)c1c(O)cccc1C3=O)C(=O)c1c(O)cccc1C2=O` showed a logIC50 in the data set with Raji [1] of 2.86.

In the case of `COc1cc(O)c2c(c1)C(=O)c1cc(C)cc(OC)c1C2=O`, the Activity was 0% with Raji [2], 91.8% in the data set with Raji [3], 45.3% in the data set on Raji [4] and 21.3% in the data set with Raji [6]. For the same compound, the logIC50 in the data set on Raji [1] was 2.43. Further, in data set [5], the viability at 1000 molar ratio was 60%.

`O=C1c2ccc(O)cc2C(=O)c2ccc(O)cc21` registered a logIC50 in the data set with Raji [1] of 2.88.

`COc1cc2c(c(OC)c1OC)C(=O)c1c(cc(C)c(O)c1OC)C2=O`: the logIC50 with Raji [1] was 2.73.

`COc1cc(O)cc2c1C(=O)c1c(O)cc(C)cc1C2=O` [QUESTIN]: the Activity with Raji [2] amounted to 3.7%; in the data set on Raji [3] it was 95.6%; in the data set with Raji [4], 52.8%; in the data set on Raji [6], 25.6%. In the data set with Raji [1], the logIC50 amounted to 2.52. Moreover, the viability at 1000 molar ratio in data set [5] is 60%.

In turn, `COc1cc(C)cc2c1C(=O)c1c(O)cccc1C2=O` yielded a logIC50 in the data set with Raji [1] of 2.82.

In the case of `Cc1cc(O)c2c(c1)C(=O)c1cc(CO)c(-c3c(O)cc4c(c3O)C(=O)c3c(O)cccc3C4=O)c(O)c1C2=O`, the logIC50 with Raji [1] was determined as 2.8.

`CC(=O)Oc1cc(C)cc2c1C(=O)c1c(OC(C)=O)cc(O)cc1C2=O`: the logIC50 with Raji [1] turned out to be 2.7.

As for `COc1cc(C)cc2c1C(=O)c1c(O)cc(O)cc1C2=O` [1-O-METHYLEMODIN], the Activity came out at 1.1% in the data set with Raji [2], 94.1% with Raji [3], 49.8% in the data set on Raji [4] and 24.1% with Raji [6]. The same compound showed a logIC50 with Raji [1] of 2.49. Also, the viability at 1000 molar ratio in data set [5] was determined as 60%.

In the case of `COc1cc(C)cc2c1C(=O)c1c(OC)cc(O)cc1C2=O`, the Activity was 0% in the data set with Raji [2], 92.6% with Raji [3], 47.3% with Raji [4] and 22% with Raji [6]. The same compound displayed a logIC50 in the data set with Raji [1] of 2.45. For the same compound, the viability at 1000 molar ratio in data set [5] is 60%.

`CC(=O)Oc1cc(OC(C)=O)c2c(c1)C(=O)c1cc(C(=O)O)cc(OC(C)=O)c1C2=O` came in with a logIC50 in the data set with Raji [1] of 2.66.

In turn, `O=C1c2cccc(O)c2C(=O)c2c(O)cccc21` returned a logIC50 with Raji [1] of 2.78.

In the data set with Raji [1], `CCc1ccc2c(c1)C(=O)c1ccccc1C2=O` gave a logIC50 of 2.7.

`CC(=O)Oc1cc(OC(C)=O)c2c(c1)C(=O)c1cc(C)cc(OC(C)=O)c1C2=O`: in the data set on Raji [1], the logIC50 stood at 2.67.

In the case of `Cc1cc(O)c2c(c1)C(=O)c1cc(O)cc(O)c1C2=O` [EMODIN], the Activity in the data set on Raji [2] turned out to be 1.5%; in the data set with Raji [3], 91%; in the data set with Raji [4], 51.6%; in the data set on Raji [6] it was 24.8%. Moreover, the logIC50 in the data set with Raji [1] turned out to be 2.48. The viability at 1000 molar ratio in data set [5] was determined as 70%.

Take `Cc1cc(O)c2c(c1)C(=O)c1cccc(O)c1C2=O`: the logIC50 in the data set with Raji [1] came out at 2.68.

With `COc1c(O)c(C)cc2c1C(=O)c1c(O)cccc1C2=O` [OBTUSIFOLIN], the Activity in the data set with Raji [2] is 4.3%; in the data set with Raji [3], 98.7%; in the data set with Raji [4], 54.9%; with Raji [6], 27.8%. The same compound yielded a logIC50 in the data set on Raji [1] of 2.55. Moreover, in data set [5], the viability at 1000 molar ratio stood at 60%.

In the case of `Cc1ccc2c(c1O)C(=O)c1ccccc1C2=O`, the logIC50 with Raji [1] stood at 2.72.

For `O=C1c2ccccc2C(=O)c2c(O)cccc21`, the logIC50 in the data set with Raji [1] turned out to be 2.77.

For `COc1cc(O)c2c(c1)C(=O)c1cc(C)cc(O)c1C2=O` [PHYSCION], the Activity is 1.5% in the data set with Raji [2], 94.2% in the data set on Raji [3], 51.1% in the data set with Raji [4] and 24.7% in the data set on Raji [6]. Also, the logIC50 in the data set on Raji [1] was determined as 2.5. Also, in data set [5], the viability at 1000 molar ratio was 60%.

Take `Cc1ccc2c(c1)C(=O)c1ccccc1C2=O`: the logIC50 in the data set with Raji [1] was 2.66.
